Reference: patent publication US20190008757A1, “DERMATOLOGICAL OR COSMETIC COMPOSITIONS CONTAINING A POLYPHENOL?ENRICHED EXTRACT OF VITEX NEGUNDO” (Laboratoires Expanscience, priority 2016, published 2019)

Key:
[1] = test system: Interleukin-1 beta (IL1β); assay: Assay of IL1β in keratinocytes treated with 10 μg/mL PMA; format: cell-based, human; settings: 0.1 μM, 24 h pretreatment; for IL1Beta Mean: then 10 μg/mL PMA overnight; for IL1Beta Increase (%): versus PMA
Experimental: (§1) Release of the cytokines Interleukin-1 beta (IL1β) and Prostaglandin E2 (PGE2) was analysed. […] Inflammation was then induced by addition of 10 μg/mL PMA overnight. An assay of IL1β and PGE2 was then performed in the cell culture supernatants. In parallel, the number of biologically active cells was determined by a neutral red assay. The amount of cytokine measured for each condition was normalised to the number of living cells determined by the neutral red assay. The significance of the results was verified by a one-factor analysis of variance followed by Tukey's test (GraphPad PRISM software version 5.02, GraphPad Software, San Diego Calif. USA).

Prostaglandin E2 (PGE2) = assay: Assay of PGE2 in keratinocytes treated with 10 μg/mL PMA; format: cell-based, human; settings: 0.1 μM; for PGE2 Mean / PGE2 Increase (%): 24 h pretreatment; for PGE2 Mean: then 10 μg/mL PMA overnight; for PGE2 Increase (%): versus PMA
Experimental: as §1

[2] = test system: Normal human keratinocytes; assay: Production of reactive oxygen species (DCFH-DA) in keratinocytes treated with H2O2; format: cell-based; settings: for ROS Mean: 24 h preincubation and during 100 μM H2O2 20 min, normalised to living cells; for ROS Increase (%): versus 100 μM H2O2; for ROS production following H2O2 treatment (in words): antioxidant references, 10 μM quercetin or 500 μM vitamin C
Experimental: The antioxidant effect of the polyphenol-enriched extract of Vitex negundo is evaluated using the incorporation of DCFHDA (2′,7′-dichlorofluorescin diacetate) into keratinocytes in culture. This molecule is a nonfluorescent marker in an unoxidised state. Under oxidising conditions (in this case stress induced by hydrogen peroxide, H2O2), DCFHDA will be degraded to DCF, a molecule which will emit fluorescence. […] Normal human keratinocytes were preincubated for 24 hours in the presence of 0.0005%, 0.001% and 0.005% (w/v) concentrations of the polyphenol-enriched extract of Vitex negundo, and 0.016%, 0.03% and 0.16% monopropylene glycol (controls corresponding to the solvent concentrations contained in the concentrations of Vitex negundo extract studied), 10 μM quercetin or 500 μM vitamin C (the latter two molecules serving as antioxidant reference). The cells are then treated for 1 hour in the presence of 0.5 mM DCFH-DA. Oxidation is induced by addition of 100 μM H2O2 for 20 minutes. A second treatment with the tested products is performed simultaneously with H2O2 stress (at the same concentrations as the pretreatment). Lastly, a measurement of fluorescence density (DFU) corresponding to the amount of ROS is performed using a microplate reader. In parallel, the number of biologically active cells was determined by a neutral red assay. The amount of ROS (reactive oxygen species) measured for each condition was normalised to the number of living cells determined by the neutral red assay. The significance of the results was verified by a one-factor analysis of variance followed by Tukey's test (GraphPad PRISM software version 5.02, GraphPad Software, San Diego Calif. USA).

[3] = test system: human sensory neuron/old keratinocyte cocultures; assay: Neurite length of sensory neurons in neuron/keratinocyte co-cultures; format: cell-based; settings: 50 ng/mL
Experimental: Sensory neurons are derived from hiPS cells obtained from human fibroblasts. hiPS cells were cocultured with keratinocytes […]. The co-cultures were treated with the Vitex negundo extract at various concentrations (0.003%, 0.001%, 0.0005%, 0.0001%, 0.00005%, 0.00001% (w/v)), with 0.1% monopropylene glycol (extraction solvent control) and with 50 ng/mL nerve growth factor (NGF) serving as positive reference for dendrite elongation.
After 6 days of co-culture, the cells were fixed with 2% paraformaldehyde solution and then labelled with an anti-β-tubulin antibody. Labelling was observed using a fluorescence microscope and 20 images were acquired per co-culture. The length of the sensory neuron projections was measured and normalised by the number of labelled cell bodies. All statistics were done using the t-test and the ANOVA test (*p<0.05; **p<0.01; ***p<0.001).

Row | Compound | IL1Beta Mean [1] | IL1Beta Increase (%) [1] [%] | PGE2 Mean (Prostaglandin E2 (PGE2)) | PGE2 Increase (%) (Prostaglandin E2 (PGE2)) | ROS production following H2O2 treatment (in words) [2] | also measured
1 | C[C@@H]1C[C@H]2[C@@H]3CCC4=CC(=O)C=C[C@]4(C)[C@@]3(F)[C@@H](O)C[C@]2(C)[C@@]1(O)C(=O)CO [Dexamethasone, dexamethasone] | 0.120 (pg/mL)/OD neutral red | −34 | 1339.332 (pg/mL)/OD neutral red | −43 |  | 
2 | COc1ccc2c(c1)c(CC(=O)O)c(C)n2C(=O)c1ccc(Cl)cc1 [Indometacin, indomethacin] | 0.172 (pg/mL)/OD neutral red | −5 | 416.328 (pg/mL)/OD neutral red | −82 |  | release of PGE2 (in words) (Prostaglandin E2 (PGE2); pretreatment for 24 hours): significantly decreased
3 | O=c1c(O)c(-c2ccc(O)c(O)c2)oc2cc(O)cc(O)c12 [quercetin] |  |  |  |  | significantly decreased | ROS Mean ([2]; 10 μmol/L): 24411 fluorescence units; ROS Increase (%) ([2]; 10 μmol/L): −82%
4 | O=C1O[C@H]([C@@H](O)CO)C(O)=C1O [vitamin C] |  |  |  |  | significantly decreased | ROS Mean ([2]; 500 μM): 11940 fluorescence units; ROS Increase (%) ([2]; 500 μM): −91%
5 | NGF: nerve growth factor (NGF) serving as positive reference for dendrite elongation |  |  |  |  |  | total neurite length and neurite length per cell (in words) [3]: significantly increased; Neurite length per cell ([3]; 6 days of co-culture, control cells 143 ± 16): 212 ± 23 (*) arbitrary units; Total neurite length ([3]; 6 days of co-culture, control cells 6865 ± 633): 10393 ± 1849 (**) arbitrary units
